In the supplement of paper PMC10307832:

Legend:
Assay in all cases: relative viability (nuclei count vs DMSO), 5 days (fraction); higher = more cells survive
AT-7519 + Foretinib = compound: O=C(NC1CCNCC1)c1n[nH]cc1NC(=O)c1c(Cl)cccc1Cl [AT-7519] + COc1cc2c(Oc3ccc(NC(=O)C4(C(=O)Nc5ccc(F)cc5)CC4)cc3F)ccnc2cc1OCCCN1CCOCC1 [Foretinib] (partner 0.25 µM)
How it was run: (§1)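 Cells from lung cancer lines were seeded into 1536-well plates and, one day later, dosed by pin tool. Treatments were either a single drug or a fixed dose of an anchor drug with five library-drug doses (not always all listed) in √10 steps. After 5 days, nuclei were stained in a one-step fixation (final 0.05% Triton X-100, 1% formaldehyde, 1 ug/ml Hoechst) and counted on 4× images, and relative viability is the treated-to-vehicle nuclei ratio, as the median of duplicate plates.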

[1] = compound: C1=CC2=C(C=C(C(=C2N=C1)O)N=NC3=CC4=C(C=C3)C=C(C=C4)S(=O)(=O)O)S(=O)(=O)O + CC(C)C[C@H](NC(=O)[C@H](Cc1ccccc1)NC(=O)c1cnccn1)B(O)O [Bortezomib] (partner 0.002 µM)
How it was run: as §1

AT-7519 + Trametinib = compound: O=C(NC1CCNCC1)c1n[nH]cc1NC(=O)c1c(Cl)cccc1Cl [AT-7519] + CC(=O)Nc1cccc(-n2c(=O)n(C3CC3)c(=O)c3c(Nc4ccc(I)cc4F)n(C)c(=O)c(C)c32)c1 [Trametinib] (partner 0.02 µM)
How it was run: as §1

[2] = compound: C1=CC2=C(C=C(C(=C2N=C1)O)N=NC3=CC4=C(C=C3)C=C(C=C4)S(=O)(=O)O)S(=O)(=O)O + Cc1nc(Nc2ncc(C(=O)Nc3c(C)cccc3Cl)s2)cc(N2CCN(CCO)CC2)n1 [Dasatinib] (partner 0.075 µM)
How it was run: as §1

Row | Cell Line | relative viability (AT-7519 + Foretinib; first compound 0.01 µM) | relative viability (AT-7519 + Foretinib; first compound 0.03162 µM) | relative viability (AT-7519 + Foretinib; first compound 0.3162 µM) | relative viability (AT-7519 + Foretinib; first compound 1 µM) | relative viability ([1]; first compound 0.08 µM) | relative viability ([1]; first compound 0.253 µM) | relative viability ([1]; first compound 0.8 µM) | relative viability ([1]; first compound 2.53 µM) | relative viability ([1]; first compound 8 µM) | relative viability (AT-7519 + Trametinib; first compound 0.01 µM) | relative viability (AT-7519 + Trametinib; first compound 0.03162 µM) | relative viability (AT-7519 + Trametinib; first compound 0.3162 µM) | relative viability (AT-7519 + Trametinib; first compound 1 µM) | relative viability ([2]; first compound 0.08 µM) | relative viability ([2]; first compound 0.253 µM) | relative viability ([2]; first compound 0.8 µM) | relative viability ([2]; first compound 2.53 µM) | relative viability ([2]; first compound 8 µM)
1 | NCI-H1651 | 0.855 | 0.786 | 0.803 | 0.683 | 0.942 | 0.903 | 0.894 | 0.963 | 0.755 | 0.765 | 0.781 | 0.871 | 0.828 | 0.451 | 0.3 | 0.416 | 0.406 | 0.466
2 | SW 1573 | 0.797 | 0.918 | 0.722 | 0.543 | 0.931 | 1.02 | 1.04 | 0.976 | 1.03 | 0.603 | 0.494 | 0.37 | 0.109 | 0.545 | 0.572 | 0.417 | 0.513 | 0.273
3 | A-427 | 1.16 | 0.968 | 1.06 | 0.384 | 0.956 | 1.02 | 0.981 | 1.04 | 0.966 | 0.728 | 0.71 | 0.716 | 0.338 | 0.68 | 0.634 | 0.64 | 0.775 | 0.751
4 | NCI-H2347 | 0.738 | 0.902 | 0.8 | 0.819 | 1.23 | 0.962 | 0.982 | 0.98 | 0.955 | 0.263 | 0.256 | 0.274 | 0.254 | 0.317 | 0.316 | 0.333 | 0.343 | 0.247
5 | NCI-H1355 | 0.906 | 0.989 | 1.02 | 0.854 | 1.22 | 1.22 | 1.15 | 1.23 | 1.29 | 0.482 | 0.416 | 0.48 | 0.298 | 0.764 | 0.754 | 0.708 | 0.77 | 0.665
6 | PC-3 [JPC-3] | 1.03 | 1.05 | 1.03 | 1.06 | 0.908 | 0.849 | 0.768 | 0.794 | 0.851 | 0.715 | 0.667 | 0.767 | 0.53 | 1.11 | 0.98 | 1.03 | 1.05 | 1
7 | NCI-H2228 | 0.833 | 0.789 | 0.814 | 0.595 | 1.17 | 1.01 | 0.917 | 1.01 | 0.96 | 0.441 | 0.426 | 0.421 | 0.247 | 0.639 | 0.469 | 0.464 | 0.514 | 0.49
8 | HOP-62 | 1.11 | 1.16 | 1.04 | 0.977 | 0.714 | 0.558 | 0.851 | 0.725 | 0.637 | 0.344 | 0.347 | 0.401 | 0.176 | 0.69 | 0.657 | 0.676 | 0.588 | 0.653
9 | HARA | 1.07 | 0.638 | 0.906 | 0.591 | 1.14 | 1.08 | 1.03 | 1.13 | 1.01 | 0.805 | 0.551 | 0.796 | 0.313 | 0.284 | 0.274 | 0.274 | 0.296 | 0.327
10 | NCI-H838 | 1.07 | 1.02 | 0.886 | 0.527 | 0.753 | 0.909 | 0.674 | 0.633 | 0.764 | 0.475 | 0.443 | 0.529 | 0.0788 | 0.292 | 0.25 | 0.283 | 0.3 | 0.29
11 | NCI-H1755 | 0.947 | 0.944 | 0.813 | 0.878 | 1.08 | 0.962 | 0.934 | 0.95 | 0.958 | 0.834 | 0.768 | 0.787 | 0.469 | 0.483 | 0.475 | 0.455 | 0.433 | 0.536
12 | HCC-78 | 0.564 | 0.563 | 0.597 | 0.575 | 0.513 | 0.469 | 0.475 | 0.417 | 0.526 | 0.688 | 0.712 | 0.963 | 0.46 | 0.404 | 0.337 | 0.426 | 0.352 | 0.394
13 | NCI-H322M | 1.01 | 0.932 | 0.511 | 0.456 | 1.26 | 1.11 | 1.22 | 1.32 | 1.28 | 0.531 | 0.444 | 0.539 | 0.525 | 0.252 | 0.251 | 0.234 | 0.27 | 0.274
14 | NCI-H3122 | 1.07 | 0.968 | 0.983 | 0.465 | 0.975 | 0.899 | 1.02 | 0.996 | 0.987 | 0.255 | 0.213 | 0.225 | 0.148 | 0.954 | 0.741 | 0.716 | 0.882 | 0.0807
15 | COR-L23 | 1.19 | 0.799 | 0.992 | 0.507 | 0.982 | 0.953 | 1.06 | 0.962 | 1.03 | 0.83 | 0.643 | 0.469 | 0.103 | 0.523 | 0.477 | 0.442 | 0.582 | 0.576
16 | NCI-H2087 | 1.14 | 1.09 | 1.07 | 0.295 | 0.888 | 0.902 | 0.856 | 0.669 | 0.904 | 0.241 | 0.187 | 0.135 | 0.119 | 0.962 | 0.872 | 0.715 | 0.847 | 0.884
